These results are taken from patent US10851065B2 (Eisai R&D Management Co., Ltd., priority 2015, dated 2020).

For assay [1], the system named is MCF7-Y537S cells (MCF7 ER-alpha Y537S mutant). Briefly: In vitro proliferation (viability) assay, CellTiter-Glo, MCF7-Y537S cells. It counts as cell-based. As to conditions: Homo sapiens; MCF7-Y537S cells, 6 days, CTG vs day 0; mean ± SD-type spread (n); read-out: GI50 MUT (Y537S). As to the method:
(§1) MCF7 BUS cells (Coser, et al., (2003) PNAS 100(24): 13994-13999) were maintained in Dulbecco's Modified Eagle Medium supplemented with 10% FBS, 4 mM L-glutamine and 1× non-essential amino acids. Lenti-X 293T cells (Clontech, Cat #632180) were routinely cultured in Dulbecco's Modified Eagle Medium supplemented with 10% FBS.
(§2) The QuikChange II XL Site-Directed Mutagenesis Kit (Agilent Technologies, Cat #200523) was used to generate Y537S, Y537C, Y537N and D538G mutations within the ERα exon 8. Wild-type ESR1 cDNA (GeneCopoeia Inc., Cat #GC-A0322, accession no. NM 000125) was used as a template with the following mutagenesis primers (where the underlined nucleotides represent site mutations); Y537S: F-AAGAACGTGGTGCCCCTCTCTGACCTGCTGCTGGAGATG (SEQ ID NO: 1), R-CATCTCCAGCAGCAGGTCAGAGAGGGGCACCACGTTCTT (SEQ ID NO: 2); Y537N: F-AAGAACGTGGTGCCCCTCAATGACCTGCTGCTGGAGATG (SEQ ID NO: 3), R-CATCTCCAGCAGCAGGTCATTGAGGGGCACCACGTTCTT (SEQ ID NO: 4); Y537C: F-AAGAACGTGGTGCCCCTCTGTGACCTGCTGCTGGAGATG (SEQ ID NO: 5), R-CATCTCCAGCAGCAGGTCACAGAGGGGCACCACGTTCTT (SEQ ID NO: 6); D538G: F-AACGTGGTGCCCCTCTATGGCCTGCTGCTGGAGATGCTG (SEQ ID NO: 7), R-CAGCATCTCCAGCAGCAGGCCATAGAGGGGCACCACGTT (SEQ ID NO: 8). WT and mutant ESR1 cDNAs were cloned into the designation lentiviral vector pLenti6.3/V5-Dest (Invitrogen, Cat #V533-06). To make lentivirus, DNAs (WT and mutant ESR1) were co-transfected with packaging plasmids into Lenti-X 293T cells using TransIT (Mirus, Cat #MIR 2700). 48 h post-transfection, virus containing media was filtered and added to MCF7 cells in the presence of 8 µg/ml polybrene overnight. Two days following infection, cells were placed under selection with 10 μg/ml blasticidin for 2 weeks for stable expression.
(§3) MCF7-WT and -Y537S cells were seeded at 1500 cells/well in black-walled 96-well plates (assay plates, Costar, Cat #3904). In parallel, cells were also seeded in a separate 96-well plate (8 wells/cell line, control plate) for which a CTG (CellTiter-Glo® Luminescent Viability Assay, Promega, Cat #G7572) was measured the following day (day 0 reading). The day 0 reading was used for the GI50 calculation at the termination of the experiment. The day following seeding, compounds were added to assay plates. Briefly, a 1:4 serial dilution was prepared in DMSO at 200× final concentration for a total of 10 concentrations (9 dilutions containing compound and one is DMSO only). Serially diluted compounds were pipetted into medium to prepare a compound-medium mix at 10× final concentration. 10 μl of compound-medium mix was added to MCF7-WT and -Y537S cells at 3 wells/concentration (triplicate for each concentration). On day 3, media/compound was removed and replaced with fresh media/compound as described above. On day 6, CTG was measured and compared to day 0 readings from control plate to assess GI50.
On the technique in general: In ATP-based viability assays light output follows the ATP content of the culture.

Assay [2] deals with MCF7-WT cells (MCF7 ER-alpha wildtype). The experiment in a line: In vitro proliferation (viability) assay, CellTiter-Glo, MCF7-WT cells. It counts as cell-based. As to conditions: Homo sapiens; MCF7-WT cells, 6 days, CTG vs day 0; mean ± SD-type spread (n); read-out: GI50 WT. As to the method:
as §1, §2, §3

As usually defined, the GI50 is the concentration giving 50% growth inhibition.

As for `C#CCN(C)C(=O)/C=C/CNCCOc1ccc(/C(=C(/CC)c2ccccc2)c2ccc3[nH]ncc3c2)cc1` [Compound 8, (E)-4-((2-(4-((E)-1-(1H-indazol-5-yl)-2-phenylbut-1-en-1-yl)phenoxy)ethyl)amino)-N-methyl-N-(prop-2-yn-1-yl)but-2-enamide], the GI50 in assay [1] amounted to 22.3 nM; in assay [2], 1.59 nM.
Take `CC/C(=C(/c1ccc(OCCNC/C=C/C(=O)N(C)C)cc1)c1ccc2[nH]ncc2c1)c1ccc(F)c(F)c1` [Compound 6, (E)-4-((2-(4-((E)-2-(3,4-difluorophenyl)-1-(1H-indazol-5-yl)but-1-en-1-yl)phenoxy)ethyl)amino)-N,N-dimethylbut-2-enamide]: the 50% growth inhibitory concentration (GI50) in assay [1] was determined as 111 ± 124 nM; in assay [2], 2.93 ± 2.83 nM.
On to `CC/C(=C(/c1ccc(OCCNC(C)/C=C/C(=O)N(C)C)cc1)c1ccc2[nH]ncc2c1)c1ccccc1` (centres unmarked) [Compound 89, (E)-4-((2-(4-((E)-1-(1H-indazol-5-yl)-2-phenylbut-1-en-1-yl)phenoxy)ethyl)amino)-N,N-dimethylpent-2-enamide], for which the 50% growth inhibitory concentration (GI50) turned out to be 35 nM in assay [1] and 2.8 nM in assay [2].
On to `CC/C(=C(/c1ccc(OCCNC/C=C/C(=O)N(C)C)cc1)c1ccc2[nH]ncc2c1)c1cc(F)cc(F)c1` [Compound 5, (E)-4-((2-(4-((E)-2-(3,5-difluorophenyl)-1-(1H-indazol-5-yl)but-1-en-1-yl)phenoxy)ethyl)amino)-N,N-dimethylbut-2-enamide], for which the GI50 in assay [1] came to 81.4 ± 45.8 nM; in assay [2], 8.44 ± 3.87 nM.
Turning to `CN(C)C(=O)/C=C/CNCCOc1ccc(/C(=C(\c2ccc(F)cc2Cl)C2CCC2)c2ccc3[nH]nc(F)c3c2)cc1` [Compound 46, (E)-4-((2-(4-((E)-2-(2-chloro-4-fluorophenyl)-2-cyclobutyl-1-(3-fluoro-1H-indazol-5-yl)vinyl)phenoxy)ethyl)amino)-N,N-dimethylbut-2-enamide], the GI50 in assay [1] is 12.4 nM; in assay [2], 0.95 nM.
Take `CN(C)C(=O)/C=C/CNCCOc1ccc(/C(=C(\c2ccccc2)C2CCC2)c2ccc3[nH]ncc3c2)cc1` [Compound 13, (E)-4-((2-(4-((E)-2-cyclobutyl-1-(1H-indazol-5-yl)-2-phenylvinyl)phenoxy)ethyl)amino)-N,N-dimethylbut-2-enamide]: the figures for the GI50 in assay [1] and in assay [2] were 20 ± 13.7 nM and 2.08 ± 1.57 nM, respectively.
For `Cc1ccccc1/C(=C(\c1ccc(OCCNC/C=C/C(=O)N2CCC2)cc1)c1ccc2[nH]ncc2c1)C1CCC1` [Compound 42, (E)-1-(azetidin-1-yl)-4-((2-(4-((E)-2-cyclobutyl-1-(1H-indazol-5-yl)-2-(o-tolyl)vinyl)phenoxy)ethyl)amino)but-2-en-1-one] the same measures were 69.4 ± 29.1 nM and 2.68 ± 1.66 nM.
As to `CC/C(=C(/c1ccc(OCCNC/C=C/C(=O)N(C)CCO)cc1)c1ccc2[nH]nc(F)c2c1)c1ccc(F)cc1Cl` [Compound 28, (E)-4-((2-(4-((E)-2-(2-chloro-4-fluorophenyl)-1-(3-fluoro-1H-indazol-5-yl)but-1-en-1-yl)phenoxy)ethyl)amino)-N-(2-hydroxyethyl)-N-methylbut-2-enamide], the GI50 is 69.7 nM in assay [1] and 3.16 nM in assay [2].
For `CC/C(=C(/c1ccc(OCCNC/C=C/C(=O)N(C)C)nc1)c1ccc2[nH]nc(F)c2c1)c1ccc(F)cc1Cl` [Compound 58, (E)-4-((2-((5-((Z)-2-(2-chloro-4-fluorophenyl)-1-(3-fluoro-1H-indazol-5-yl)but-1-en-1-yl)pyridin-2-yl)oxy)ethyl)amino)-N,N-dimethylbut-2-enamide] the same measures were 17.9 ± 4.5 nM and 1.3 ± 0.4 nM.
Turning to `CC/C(=C(/c1ccc(OCCNC/C=C(\C)C(=O)N(C)C)cc1)c1ccc2[nH]nc(F)c2c1)c1ccc(F)cc1Cl` [Compound 86], the concentration for 50% growth inhibition (GI50) in assay [1] was 29.4 ± 4.7 nM; in assay [2] it was 1.73 ± 1 nM.
The corresponding values for `CN(C)C(=O)/C=C/CNCCOc1ccc(/C(=C(/CC(F)(F)F)c2ccc(F)cc2Cl)c2ccc3[nH]nc(F)c3c2)cn1` [Compound 59, (E)-4-((2-((5-((Z)-2-(2-chloro-4-fluorophenyl)-4,4,4-trifluoro-1-(3-fluoro-1H-indazol-5-yl)but-1-en-1-yl)pyridin-2-yl)oxy)ethyl)amino)-N,N-dimethylbut-2-enamide] are 15.2 ± 3.7 nM and 0.33 ± 0.18 nM.
For `[2H]c1c([2H])c([2H])c(/C(CC)=C(\c2ccc(OCCNC/C=C/C(=O)N(C)C)cc2)c2ccc3[nH]ncc3c2)c([2H])c1[2H]` [Compound 88, (E)-4-((2-(4-((E)-1-(1H-indazol-5-yl)-2-(phenyl-d5)but-1-en-1-yl)phenoxy)ethyl)amino)-N,N-dimethylbut-2-enamide] the same measures were 12.5 nM and 0.7 nM.
Consider `CC/C(=C(/c1ccc(OCCNC/C=C/C(=O)N2CCCCC2)cc1)c1ccc2[nH]ncc2c1)c1ccccc1` [Compound 12, (E)-4-((2-(4-((E)-1-(1H-indazol-5-yl)-2-phenylbut-1-en-1-yl)phenoxy)ethyl)amino)-1-(piperidin-1-yl)but-2-en-1-one], for which the GI50 in assay [1] stood at 36.7 nM; in assay [2], 1.69 nM.
For `CC/C(=C(/c1ccc(OCCNC/C=C/C(=O)N(C)C)cc1)c1ccc2[nH]ncc2c1)c1ccc(C(C)C)cc1` [Compound 29, (E)-4-((2-(4-((E)-1-(1H-indazol-5-yl)-2-(4-isopropylphenyl)but-1-en-1-yl)phenoxy)ethyl)amino)-N,N-dimethylbut-2-enamide] the same measures were 58.7 nM and 3.37 nM.
In the case of `CC/C(=C(/c1ccc(OCCNC/C=C/C(=O)N(C)CCO)cc1)c1ccc2[nH]nc(F)c2c1)c1ccncc1` [Compound 75, (E)-4-((2-(4-((E)-1-(3-fluoro-1H-indazol-5-yl)-2-(pyridin-4-yl)but-1-en-1-yl)phenoxy)ethyl)amino)-N-(2-hydroxyethyl)-N-methylbut-2-enamide], the GI50 in assay [1] worked out at 72.2 nM; in assay [2], 3.2 nM.
Consider `CC/C(=C(/c1ccc(OCCNC/C=C/C(=O)N(C)C)cc1)c1cc(F)c2[nH]ncc2c1)c1ccccc1` [Compound 76, (E)-4-((2-(4-((E)-1-(7-fluoro-1H-indazol-5-yl)-2-phenylbut-1-en-1-yl)phenoxy)ethyl)amino)-N,N-dimethylbut-2-enamide], for which the results for the GI50 in assay [1] and in assay [2] were 32.2 nM and 1.2 nM, respectively.
For the molecule `CC/C(=C(/c1ccc(OCCNC/C=C/C(=O)N(C)C)cc1)c1cc(F)c2[nH]nc(F)c2c1)c1ccccc1` [Compound 79, (E)-4-((2-(4-((E)-1-(3,7-difluoro-1H-indazol-5-yl)-2-phenylbut-1-en-1-yl)phenoxy)ethyl)amino)-N,N-dimethylbut-2-enamide], the GI50 in assay [1] amounted to 92.5 nM; in assay [2] it was 6.9 nM.
For `CC/C(=C(/c1ccc(OCC(C)(C)NC/C=C/C(=O)N(C)C)cc1)c1ccc2[nH]ncc2c1)c1ccccc1` [Compound 98, (E)-4-((1-(4-((E)-1-(1H-indazol-5-yl)-2-phenylbut-1-en-1-yl)phenoxy)-2-methylpropan-2-yl)amino)-N,N-dimethylbut-2-enamide] the same measures were 13.4 nM and 0.4 nM.
The corresponding values for `O=C(/C=C/CNCCOc1ccc(/C(=C(\c2ccccc2)C2CCC2)c2ccc3[nH]ncc3c2)cc1)N1CCOCC1` [Compound 23, (E)-4-((2-(4-((E)-2-cyclobutyl-1-(1H-indazol-5-yl)-2-phenylvinyl)phenoxy)ethyl)amino)-1-morpholinobut-2-en-1-one] are 24.2 ± 6.57 nM and 1.52 ± 1.05 nM.
